Test results: ChEMBL document CHEMBL1201862, “PubChem BioAssay data set” (2004)
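Protocol summary: plate cells (96-well), add compound at 5 concentrations, incubate 48 h, interpolate endpoints linearly. Abbreviation: GI50, concentration required for 50% inhibition of growth.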 The source made the active and inactive calls. Cut-off read from the data, not from the text of the source: active = GI50 up to about 1.1 µM and inactive = higher.

Experiments:
Experiment in all cases: NCI-60 cell line screen, 48 h
NCI-H23 = tested on: NCI-H23
A549 = tested on: A549
Malme-3M = tested on: Malme-3M
MOLT-4 = tested on: MOLT-4
SK-OV-3 = tested on: SK-OV-3
NCI-H226 = tested on: NCI-H226
SK-MEL-5 = tested on: SK-MEL-5
SK-MEL-28 = tested on: SK-MEL-28
SK-MEL-2 = tested on: SK-MEL-2
HCT-15 = tested on: HCT-15
TK-10 = tested on: TK-10
NCI-H460 = tested on: NCI-H460
SNB-19 = tested on: SNB-19
SR = tested on: SR
CCRF-CEM = tested on: CCRF-CEM
HCT-116 = tested on: HCT-116
OVCAR-4 = tested on: OVCAR-4
SF-268 = tested on: SF-268
MDA-N = tested on: MDA-N

Question: With COc1ccc2nc3ccccc3c(NCCCCN(CCCl)CCCl)c2c1 as the compound, how does the GI50 (NCI-H23) read?
Answer: 0.147 µM (active)

Question: What about the GI50 (A549) of the same compound?
Answer: 0.162 µM (active)

Question: And the GI50 (Malme-3M)?
Answer: 0.112 µM (active)

Question: And the GI50 (MOLT-4)?
Answer: 0.01 µM (active)

Question: And the GI50 (SK-OV-3)?
Answer: 1.22 µM (inactive)

Question: And the GI50 (NCI-H226)?
Answer: 0.368 µM (active)

Question: And the GI50 (SK-MEL-5)?
Answer: 0.292 µM (active)

Question: What about the GI50 (SK-MEL-28) of the same compound?
Answer: 0.752 µM (active)

Question: What about the GI50 (SK-MEL-2) of the same compound?
Answer: 0.703 µM (active)

Question: What about the GI50 (HCT-15) of the same compound?
Answer: 0.244 µM

Question: What about the GI50 (TK-10) of the same compound?
Answer: 1.17 µM (inactive)

Question: What about the GI50 (NCI-H460) of the same compound?
Answer: < 0.0352 µM (active)

Question: What about the GI50 (SNB-19) of the same compound?
Answer: 0.783 µM (active)

Question: What about the GI50 (SR) of the same compound?
Answer: 0.04 µM (active)

Question: And the GI50 (CCRF-CEM)?
Answer: 0.01 µM (active)

Question: And the GI50 (HCT-116)?
Answer: 0.0733 µM (active)

Question: What about the GI50 (OVCAR-4) of the same compound?
Answer: 0.148 µM (active)

Question: And the GI50 (SF-268)?
Answer: 0.0735 µM (active)

Question: How did the GI50 (NCI-H23) turn out when O=C(CSc1nnc(-c2ccc(/N=C\c3ccc(Cl)cc3)cc2)o1)Nc1cccc([N+](=O)[O-])c1 was run?
Answer: > 100 µM (inactive)

Question: What about the GI50 (A549) of the same compound?
Answer: > 100 µM (inactive)

Question: What about the GI50 (Malme-3M) of the same compound?
Answer: > 100 µM (inactive)

Question: What about the GI50 (MOLT-4) of the same compound?
Answer: > 100 µM (inactive)

Question: And the GI50 (SK-OV-3)?
Answer: > 100 µM (inactive)

Question: What about the GI50 (NCI-H226) of the same compound?
Answer: > 100 µM (inactive)

Question: And the GI50 (SK-MEL-5)?
Answer: > 100 µM (inactive)

Question: What about the GI50 (SK-MEL-28) of the same compound?
Answer: > 100 µM (inactive)

Question: And the GI50 (SK-MEL-2)?
Answer: > 100 µM (inactive)

Question: And the GI50 (HCT-15)?
Answer: > 100 µM

Question: What about the GI50 (TK-10) of the same compound?
Answer: > 100 µM (inactive)

Question: And the GI50 (NCI-H460)?
Answer: > 100 µM (inactive)

Question: And the GI50 (SNB-19)?
Answer: > 100 µM (inactive)

Question: What about the GI50 (SR) of the same compound?
Answer: > 100 µM (inactive)

Question: What about the GI50 (CCRF-CEM) of the same compound?
Answer: > 100 µM (inactive)

Question: And the GI50 (HCT-116)?
Answer: > 100 µM (inactive)

Question: And the GI50 (OVCAR-4)?
Answer: > 100 µM (inactive)

Question: And the GI50 (SF-268)?
Answer: > 100 µM (inactive)

Question: For CCOc1cc(/C=C2\N=C(c3ccccc3)N(c3nc4ccccc4s3)C2=O)ccc1O, which GI50 (NCI-H23) is on record?
Answer: 21.7 µM (inactive)

Question: What about the GI50 (MOLT-4) of the same compound?
Answer: 19.5 µM (inactive)

Question: What about the GI50 (SK-OV-3) of the same compound?
Answer: > 100 µM (inactive)

Question: And the GI50 (MDA-N)?
Answer: 31.3 µM (inactive)

Question: And the GI50 (NCI-H226)?
Answer: 59.8 µM (inactive)

Question: And the GI50 (SK-MEL-5)?
Answer: 18.5 µM (inactive)

Question: What about the GI50 (SK-MEL-28) of the same compound?
Answer: 64.4 µM (inactive)

Question: And the GI50 (SK-MEL-2)?
Answer: 23.8 µM (inactive)

Question: And the GI50 (HCT-15)?
Answer: 24.5 µM

Question: What about the GI50 (TK-10) of the same compound?
Answer: 56.9 µM (inactive)

Question: What about the GI50 (NCI-H460) of the same compound?
Answer: 29.2 µM (inactive)

Question: What about the GI50 (SR) of the same compound?
Answer: 29.9 µM (inactive)

Question: What about the GI50 (CCRF-CEM) of the same compound?
Answer: 34.3 µM (inactive)

Question: What about the GI50 (HCT-116) of the same compound?
Answer: 42.3 µM (inactive)

Question: What about the GI50 (OVCAR-4) of the same compound?
Answer: 48.3 µM (inactive)

Question: And the GI50 (SF-268)?
Answer: 42 µM (inactive)

Question: What does the source list for CC(=O)Oc1c(C)cc2c(c1C)C(C)(C)CN2C(=O)C(C)(C)C?
Answer: GI50 (NCI-H23): 81.1 µM (inactive); GI50 (A549): 83.8 µM (inactive); GI50 (MOLT-4): 25.4 µM (inactive); GI50 (SK-OV-3): > 100 µM (inactive); GI50 (MDA-N): > 100 µM (inactive); GI50 (NCI-H226): 38.5 µM (inactive); GI50 (SK-MEL-5): 42.3 µM (inactive); GI50 (SK-MEL-28): > 100 µM (inactive); GI50 (SK-MEL-2): > 100 µM (inactive); GI50 (HCT-15): > 100 µM; GI50 (TK-10): > 100 µM (inactive); GI50 (NCI-H460): > 100 µM (inactive); GI50 (SNB-19): > 100 µM (inactive); GI50 (CCRF-CEM): 65.9 µM (inactive); GI50 (HCT-116): 67.9 µM (inactive); GI50 (OVCAR-4): 71.8 µM (inactive); GI50 (SF-268): > 100 µM (inactive)

Question: With CN(C)C(=S)Nc1nnc(NC23CC4CC(CC(C4)C2)C3)s1.[O-][Cl+3]([O-])([O-])O as the compound, how does the GI50 (NCI-H23) read?
Answer: 10 µM (inactive)

Question: And the GI50 (A549)?
Answer: 12.4 µM (inactive)

Question: What about the GI50 (Malme-3M) of the same compound?
Answer: 17.3 µM (inactive)

Question: What about the GI50 (MOLT-4) of the same compound?
Answer: 14.8 µM (inactive)

Question: What about the GI50 (SK-OV-3) of the same compound?
Answer: 43.8 µM (inactive)

Question: What about the GI50 (NCI-H226) of the same compound?
Answer: 19.4 µM (inactive)

Question: And the GI50 (SK-MEL-5)?
Answer: 0.1 µM (active)

Question: What about the GI50 (SK-MEL-28) of the same compound?
Answer: 15 µM (inactive)

Question: What about the GI50 (SK-MEL-2) of the same compound?
Answer: 18.5 µM (inactive)

Question: And the GI50 (HCT-15)?
Answer: 13.6 µM

Question: What about the GI50 (TK-10) of the same compound?
Answer: 40.5 µM (inactive)

Question: What about the GI50 (NCI-H460) of the same compound?
Answer: 12.6 µM (inactive)

Question: And the GI50 (SNB-19)?
Answer: 18.3 µM (inactive)

Question: What about the GI50 (SR) of the same compound?
Answer: 15.9 µM (inactive)

Question: What about the GI50 (CCRF-CEM) of the same compound?
Answer: 15 µM (inactive)

Question: And the GI50 (HCT-116)?
Answer: 13.3 µM (inactive)

Question: What about the GI50 (OVCAR-4) of the same compound?
Answer: 16.1 µM (inactive)

Question: What about the GI50 (SF-268) of the same compound?
Answer: 16.4 µM (inactive)

Question: For CCOC(=O)CC(=O)N(c1ccc(OC)cc1)C(C(=O)OC)c1ccccc1 (stereo unspecified), which GI50 (NCI-H23) is on record?
Answer: > 100 µM (inactive)

Question: What about the GI50 (A549) of the same compound?
Answer: > 100 µM (inactive)

Question: What about the GI50 (MDA-N) of the same compound?
Answer: > 100 µM (inactive)

Question: What about the GI50 (SK-MEL-5) of the same compound?
Answer: > 100 µM (inactive)

Question: And the GI50 (SK-MEL-28)?
Answer: > 100 µM (inactive)

Question: What about the GI50 (SK-MEL-2) of the same compound?
Answer: > 100 µM (inactive)

Question: And the GI50 (HCT-15)?
Answer: > 100 µM

Question: What about the GI50 (TK-10) of the same compound?
Answer: > 100 µM (inactive)

Question: What about the GI50 (NCI-H460) of the same compound?
Answer: > 100 µM (inactive)

Question: What about the GI50 (SNB-19) of the same compound?
Answer: > 100 µM (inactive)

Question: And the GI50 (SR)?
Answer: > 100 µM (inactive)

Question: And the GI50 (CCRF-CEM)?
Answer: > 100 µM (inactive)

Question: What about the GI50 (HCT-116) of the same compound?
Answer: > 100 µM (inactive)

Question: And the GI50 (SF-268)?
Answer: > 100 µM (inactive)
